Key:
Format in all cases: in vivo, human
Integrin beta 3 = Integrin beta 3 isotyping SRM assay, post:pre aspirin ratio
Protocol: 50 ml of whole blood was drawn from subjects into trisodium citrate (final concentration 0.32%) from the antecubital vein using a Butterfly® 19-guage siliconised needle. Blood was centrifuged (20 min, 200×g, room temperature (RT)) to obtain platelet rich plasma (PRP) that was acidified with the addition of 0.3M citric acid (target pH 6.5). Further centrifugation (15 min, 1200×g, RT) produced the platelet pellet that was immediately re-suspended in citrate wash buffer (refer to Appendix 1 for composition) and prostaglandin E1 (Sigma) was added to a final concentration of 10 nM. Removal of residual red cells and monocytes was performed by further centrifugation (3 min, 200×g, RT) and decanting of the platelet rich supernatant. Final centrifugation (15 min, 1200×g, RT) produced the washed platelet pellet that was stored at −80° C. The washed platelet pellet was re-suspended in lysis buffer (NaCl 150 mM, Tris-base 32 mM, NaF 50 mM, Na orthovanadate 1 mM to which 1 ml ethylenediaminetetraacetic acid (EDTA; 0.1M stock solution) and 1 ml Triton-X 100 was added prior to adjusting to pH 7.6 with conc. HCL and volume made up to 100 ml) containing protease inhibitor cocktail (Sigma Aldrich, UK) and placed on ice for 30 min, before agitation on ice for a further 5 min. The sample was centrifuged (5 min, 9000×g, 4° C.) to remove cellular debris. The supernatant was stored at −80° C. Aspirin sensitivity was assessed in individuals prescribed aspirin for secondary prevention using a combination of functional and biochemical assays. […] The amount of endogenous (light) peptide is calculated based on the peak area ratio relative to the 100 fmol spiked heavy peptide. For individuals where samples were available pre and post treatment with Aspirin, a post to pre ratio was calculated to assess any changes in peptide levels. […] For the healthy normal cohort, pre and post aspirin samples were not available and the basal pg measured peptides level per μg total protein were reported.

integrin beta 3 (ITGB3) = test: SRM analysis of TMT-labelled platelet peptides, post:pre aspirin ratios
Protocol: Peptides identified in the discovery study from candidate proteins were taken forward if they were proteotypic and had characteristics suitable for robust SRM quantitation i.e. fully hydrolysed, contained no known modifications (either in vivo or experimental) and had suitable MS/MS fragments for Q3 selection. Up to six peptides per protein were selected for targeted quantitation (Table 2). The m/z of Q1 and Q3 transitions for selected peptides were calculated either from data-dependent sequencing in the discovery study or from in silico analysis using Pinpoint (ThermoFisher). The theoretical optimal collision energies for each transitions were also calculated using the discovery data and Pinpoint (ThermoFisher). Peptide dection and quantitation was based on time-alignment of multiple transitions per peptide (up to six transitions per peptide). Only peptides with consistant detection of multiple time-aligned transitions in all subject samples were used in the final quantitation. The final SRM method was then applied to the quantitative analysis of the experimental sample set. TMT-labeled subject samples (70/90 μg, check) were reduced, alkylated, digested in-solution and purified by RP and SCX chromatography. […] The SRM peak area for each pre-aspirin sample was measured relative to the SRM peak area for each post-aspirin sample. […]

[1] = tested on: ITGB3 (Glycoprotein IIIa); test: Western blotting of platelet lysates with N- and C-terminal specific antibodies; conditions: irrespective of platelet responsiveness status
Protocol: Platelet lysates from subjects (10 μg each) were mixed with equal volumes of Laemmli sample buffer (2×) (125 mM Tris-base, 4% SDS, 20% glycerol, 4% β-mercaptoethanol, 0.04% bromophenol blue), and subsequently loaded onto a 12.5% SDS-PAGE gel. Proteins were transferred onto PVDF membranes, and detected using specific antibodies as follows. Paired blots were incubated with Anti-GP111a C-terminal specific (Santa Cruz Biotechnology, Item code sc-6626, C-20) or anti GP111a N-terminal specific (Santa Cruz Biotechnology, Item code sc-6627, N-20) respectively. Bands were scanned and densitometric analysis performed using Image J system (a Java based image processing program developed by the National Institutes of Health, Bethesda, USA).

[2] = tested on: platelet protein biomarkers of aspirin resistance; test: Aspirin resistance biomarker SRM method (six biomarkers); conditions: two aspirin resistant and 10 aspirin sensitive platelet digests
Source text: The six markers are Integrin beta 3 (total) and Integrin beta 3 isoform A, heat shock protein A5, pyruvate kinase isozyme M1/M2, RAB GDP1 alpha & prostaglandin G/H synthase. For each marker two or three proteotypic tryptic peptides were selected and heavy isotope standard synthetic peptides were purchased from a commercial supplier (Thermo Scientific, Belgium). Platelet preparations from Example 3 were also used in the SRM method for simultaneous measurement of six biomarkers of aspirin resistance. Prior to analysis using Platelet Aspirin Resistance assay version 2.0 samples were resuspended in a solution containing 5 fmol/μL of each of the heavy AQUA peptides (See table 2) in the method and 200 μg/mL glucagon. Prior to SRM samples were resolved by RP-chromatography over a 9 minute ACN gradient (5-30%) in 0.2% formic acid at 100 μl/min. The Platelet Aspirin Resistance assay version 2.0 contains 96 SRM transitions, covering 17 peptides from 5 proteins. The SRM cycle time was 2 seconds with retention time windows used to maximise the scan time given to each SRM transition. Including washes and time to equalibrate the column, the total run time of the method was 30 minutes.

platelets = test: TMTsixplex GeLC-MS/MS discovery proteomics of platelet extracts pre and post aspirin treatment; conditions: for peptide/protein expression after aspirin treatment: 300 mg daily, 1 month oral
Protocol: To address the shortage of sensitive, robust and reliable markers of aspirin resistance the inventors undertook a comparative proteomic study of platelet extracts derived from samples known to be resistant and sensitive following 1 month's oral administration of therapeutic doses of aspirin (300 mg daily).
Briefly, platelets were purified from blood drawn from individuals with functionally documented aspirin resistance (n=2) or sensitivity (n=4). In each case matched samples were drawn pre- and post-aspirin treatment. Proteins were extracted, reduced and alkylated prior to labelling with a sixplex set of isobaric mass tags (TMTsixplex, Proteome Sciences plc; Refer to FIG. 1b). After labelling sets of six samples were pooled according to a randomised schedule and subjected to 1-dimensional SDS-PAGE. Each gel lane was cut into […] and each band subjected to in gel digestion using trypsin prior to analysis by LC-MS/MS to allow protein identification. Relative quantitation of each protein was achieved by comparing the ion intensity and area under the curve for each of the six TMT Reporter Ions and proteins showing a difference in levels between aspirin resistant and sensitive platelets were thus identified.
From 94 healthy subjects, 2 subjects were determined as aspirin resistance using measurements of platelet aggregommetry (agonist's arachidonic acid and ADP) and 11-dehydroTXB2 in urine. To be defined as truly aspirin resistant subjects must have an abnormal response with both measures. Subjects took 300 mg aspirin daily for 1 month.
Preparation of Platelet Samples 60 ml whole blood was obtained from subjects from the antecubital vein using a Butterfly®19-gauge needle, and collected into NaCl trisodium citrate (final concentration 0.38%). […]
Prior to analysis by GeLC-MS/MS 30 μg of each sample within a TMTsixplex experiment were mixed 1:1:1:1:1:1. The combined sample was analysed by GeLC-MS/MS with the entire gel lane being excised into 15 sections. […]

Structure (SMILES): CC(=O)Oc1ccccc1C(=O)O [aspirin, acetylsalicyclic acid]
- integrin beta 3 isoform A level after aspirin (Integrin beta 3; majority of 10 aspirin sensitive patients): remained level or decreased
- total integrin beta 3 levels after aspirin (Integrin beta 3; majority of aspirin sensitive patients): remained relatively unchanged
- integrin beta 3 isoform A level after aspirin (Integrin beta 3; two aspirin resistant patients, 1 month treatment): expected increase
- ITGB3 peptide specific for isoform beta 3A, post:pre aspirin (integrin beta 3 (ITGB3); aspirin resistant compared to aspirin sensitive subjects): consistently showed significant changes
- ITGB3 peptides common to all three isoforms, protein levels after treatment (integrin beta 3 (ITGB3); six subjects pre and post aspirin): no difference in protein levels
- intensity of staining of integrin beta 3 band, N-terminus antibody [1]: consistent pre- and post-aspirin treatment
- aspirin-dependant expression of integrin beta 3 isoform A, heat shock protein A5, RAB GDP1 alpha, prostaglandin G/H synthase [2]: consistent changes
- aspirin-dependant expression of pyruvate kinase isozyme M1/M2 [2]: more variable
- levels of vinculin, myosin and talin (platelets; housekeeping proteins used for normalisation): not influenced by aspirin treatment
- peptide/protein expression after aspirin treatment (platelets; platelets from aspirin-resistant subjects): mostly down-regulation of peptide/protein expression
- peptide/protein expression after aspirin treatment (platelets; platelets from aspirin-sensitive individuals): remained broadly similar or increased

Reference: US20140220694A1, “METHODS AND COMPOSITIONS RELATING TO PLATELET SENSITIVITY” (ELECTROPHORETICS LIMITED, priority 2011, published 2014)
